{"source": "ChEMBL document CHEMBL3244224", "about": "“Synthesis and central nervous system activity of 2-arylidene-4-aminoalkyl-2H-1,4-benzoxazin-3(4H)-ones and related compounds” (J Med Chem, 1977)", "key": {"Rattus norvegicus [1]": {"system": "Rattus norvegicus", "assay": "Central nervous system activity in ip dosed rat assessed as dose required to cause depression by measuring decreased motor activity", "type": "functional"}, "Rattus norvegicus [2]": {"system": "Rattus norvegicus", "assay": "Central nervous system activity in ip dosed rat assessed as dose required to cause decreased reflex action by measuring decreased grip strength", "type": "functional"}, "Rattus norvegicus [3]": {"species_on_record": "Rattus norvegicus", "assay": "Antagonist activity at dopamine receptor in Sprague-Dawley rat olfactory tubercles assessed as inhibition of adenylate cyclase activity at 100 uM after 5 mins", "type": "tissue-based", "settings": "Olfactory tubercle"}, "Rattus norvegicus [4]": {"species_on_record": "Rattus norvegicus", "assay": "(§1) Antagonist activity at dopamine receptor in Sprague-Dawley rat olfactory tubercles assessed as inhibition of dopamine-induced adenylate cyclase activity after 5 mins", "type": "tissue-based", "settings": "Olfactory tubercle"}, "Rattus norvegicus [5]": {"species_on_record": "Rattus norvegicus", "assay": "(§2) Antagonist activity at dopamine receptor in Sprague-Dawley rat olfactory tubercles assessed as inhibition of adenylate cyclase activity after 5 mins", "type": "tissue-based", "settings": "Olfactory tubercle"}, "Rattus norvegicus [6]": {"species_on_record": "Rattus norvegicus", "assay": "Antagonist activity at dopamine receptor in Sprague-Dawley rat olfactory tubercles assessed as inhibition of dopamine-induced adenylate cyclase activity at 100 uM after 5 mins", "type": "tissue-based", "settings": "Olfactory tubercle"}, "[7]": {"assay": "as §1", "type": "tissue-based, Olfactory tubercle", "settings": "read-out: I50"}, "[8]": {"assay": "as §2", "type": "tissue-based, Olfactory tubercle", "settings": "read-out: I50"}, "Rattus norvegicus [9]": {"species_on_record": "Rattus norvegicus", "assay": "Antagonist activity at dopamine receptor in Sprague-Dawley rat olfactory tubercles assessed as inhibition of adenylate cyclase activity at 10 uM after 5 mins", "type": "tissue-based", "settings": "Olfactory tubercle"}}, "note": "The source made the active and inactive calls. The rule behind the calls is not given here."}
{"smiles": "CCCC(C)(COC(N)=O)COC(N)=O", "note": "[MEPROBAMATE]", "values": [{"measurement": "ED", "setting": "Rattus norvegicus [1]", "result": 50, "unit": "mg/kg"}, {"measurement": "ED", "setting": "Rattus norvegicus [2]", "result": 25, "unit": "mg/kg"}]}
{"smiles": "CN(C)CCCN1C(=O)C(Cc2ccccc2)Oc2ccccc21.Cl", "note": "(stereo not given)", "values": [{"measurement": "ED", "setting": "Rattus norvegicus [1]", "result": 100, "unit": "mg/kg"}, {"measurement": "ED", "setting": "Rattus norvegicus [2]", "result": 50, "unit": "mg/kg"}]}
{"smiles": "Cl.O=C1/C(=C/c2ccccc2)Oc2ccccc2N1CCCN1CCN(c2ccccc2)CC1", "values": [{"measurement": "ED", "setting": "Rattus norvegicus [1]", "result": 100, "unit": "mg/kg"}, {"measurement": "inhibition", "setting": "Rattus norvegicus [3]", "result": "< 10", "unit": "%"}, {"measurement": "I50", "setting": "Rattus norvegicus [4]", "result": "inactive"}, {"measurement": "I50", "setting": "Rattus norvegicus [5]", "result": "inactive"}, {"measurement": "ED", "setting": "Rattus norvegicus [2]", "result": 100, "unit": "mg/kg"}, {"measurement": "inhibition", "setting": "Rattus norvegicus [6]", "result": "< 10", "unit": "%"}]}
{"smiles": "CN(C)CCCN1C(=O)/C(=C/c2cccs2)Oc2ccccc21.Cl", "values": [{"measurement": "ED", "setting": "Rattus norvegicus [1]", "result": 100, "unit": "mg/kg"}, {"measurement": "IC50", "setting": "[7]", "result": 56, "unit": "µM"}, {"measurement": "IC50", "setting": "[8]", "result": "> 200", "unit": "µM"}, {"measurement": "ED", "setting": "Rattus norvegicus [2]", "result": 100, "unit": "mg/kg"}]}
{"smiles": "CN1CCN(C2=Nc3cc(Cl)ccc3Nc3ccccc32)CC1", "note": "[CLOZAPINE]", "values": [{"measurement": "inhibition", "setting": "Rattus norvegicus [3]", "result": "< 10", "unit": "%"}, {"measurement": "IC50", "setting": "[7]", "result": 6, "unit": "µM"}, {"measurement": "I50", "setting": "Rattus norvegicus [5]", "result": "inactive"}]}
{"smiles": "Cl.O=C1/C(=C/c2ccccc2)Oc2ccccc2N1CCN1CCOCC1", "values": [{"measurement": "ED", "setting": "Rattus norvegicus [1]", "result": ">200", "unit": "mg/kg"}, {"measurement": "inhibition", "setting": "Rattus norvegicus [3]", "result": "< 10", "unit": "%"}, {"measurement": "I50", "setting": "Rattus norvegicus [4]", "result": "inactive"}, {"measurement": "I50", "setting": "Rattus norvegicus [5]", "result": "inactive"}, {"measurement": "ED", "setting": "Rattus norvegicus [2]", "result": ">200", "unit": "mg/kg"}, {"measurement": "inhibition", "setting": "Rattus norvegicus [6]", "result": "< 10", "unit": "%"}]}
{"smiles": "O=C1Nc2ccccc2O/C1=C\\c1ccccc1", "values": [{"measurement": "ED", "setting": "Rattus norvegicus [1]", "result": ">200", "unit": "mg/kg"}, {"measurement": "inhibition", "setting": "Rattus norvegicus [3]", "result": "< 10", "unit": "%"}, {"measurement": "I50", "setting": "Rattus norvegicus [4]", "result": "inactive"}, {"measurement": "I50", "setting": "Rattus norvegicus [5]", "result": "inactive"}, {"measurement": "ED", "setting": "Rattus norvegicus [2]", "result": ">200", "unit": "mg/kg"}, {"measurement": "inhibition", "setting": "Rattus norvegicus [6]", "result": "< 10", "unit": "%"}]}
{"smiles": "CN(C)CCCN1C(=O)/C(=C/c2ccccc2)Oc2ccc(Cl)cc21.Cl", "values": [{"measurement": "ED", "setting": "Rattus norvegicus [1]", "result": ">200", "unit": "mg/kg"}, {"measurement": "IC50", "setting": "[7]", "result": 100, "unit": "µM"}, {"measurement": "IC50", "setting": "[8]", "result": "> 100", "unit": "µM"}, {"measurement": "ED", "setting": "Rattus norvegicus [2]", "result": 200, "unit": "mg/kg"}]}
{"smiles": "C[N+](C)(C)CCCN1C(=O)/C(=C/c2ccccc2)Oc2ccccc21.[Cl-]", "values": [{"measurement": "ED", "setting": "Rattus norvegicus [1]", "result": 50, "unit": "mg/kg"}, {"measurement": "IC50", "setting": "[7]", "result": 650, "unit": "µM"}, {"measurement": "IC50", "setting": "[8]", "result": 1000, "unit": "µM"}, {"measurement": "ED", "setting": "Rattus norvegicus [2]", "result": 50, "unit": "mg/kg"}]}
{"smiles": "CN1CCN(CCCN2C(=O)C(Cc3ccccc3)Oc3ccccc32)CC1.Cl", "note": "(stereo not given)", "values": [{"measurement": "ED", "setting": "Rattus norvegicus [1]", "result": ">200", "unit": "mg/kg"}, {"measurement": "ED", "setting": "Rattus norvegicus [2]", "result": 50, "unit": "mg/kg"}]}
{"smiles": "CN(C)CCCN1C(=O)/C(=C/c2ccc(Cl)cc2)Oc2ccccc21.Cl", "values": [{"measurement": "ED", "setting": "Rattus norvegicus [1]", "result": 100, "unit": "mg/kg"}, {"measurement": "IC50", "setting": "[7]", "result": 30, "unit": "µM"}, {"measurement": "IC50", "setting": "[8]", "result": 450, "unit": "µM"}, {"measurement": "ED", "setting": "Rattus norvegicus [2]", "result": 100, "unit": "mg/kg"}]}
{"smiles": "CCN(CC)CCCN1C(=O)/C(=C/c2ccccc2)Oc2ccccc21.Cl", "values": [{"measurement": "ED", "setting": "Rattus norvegicus [1]", "result": 50, "unit": "mg/kg"}, {"measurement": "IC50", "setting": "[7]", "result": 60, "unit": "µM"}, {"measurement": "IC50", "setting": "[8]", "result": "> 100", "unit": "µM"}, {"measurement": "ED", "setting": "Rattus norvegicus [2]", "result": 12.5, "unit": "mg/kg"}]}
{"smiles": "CN(C)CCN1C(=O)/C(=C/c2ccccc2)Oc2ccccc21.Cl", "values": [{"measurement": "ED", "setting": "Rattus norvegicus [1]", "result": 50, "unit": "mg/kg"}, {"measurement": "IC50", "setting": "[7]", "result": 100, "unit": "µM"}, {"measurement": "IC50", "setting": "[8]", "result": "> 100", "unit": "µM"}, {"measurement": "ED", "setting": "Rattus norvegicus [2]", "result": 50, "unit": "mg/kg"}]}
{"smiles": "CN(C)CCCN1C(=O)C(Cc2ccccc2)Oc2ccc(Cl)cc21.Cl", "note": "(stereo not given)", "values": [{"measurement": "ED", "setting": "Rattus norvegicus [1]", "result": ">200", "unit": "mg/kg"}, {"measurement": "ED", "setting": "Rattus norvegicus [2]", "result": 100, "unit": "mg/kg"}]}
{"smiles": "CN(C)CCCCN1C(=O)/C(=C/c2ccccc2)Oc2ccccc21.Cl", "values": [{"measurement": "ED", "setting": "Rattus norvegicus [1]", "result": ">200", "unit": "mg/kg"}, {"measurement": "IC50", "setting": "[7]", "result": 80, "unit": "µM"}, {"measurement": "IC50", "setting": "[8]", "result": "> 200", "unit": "µM"}, {"measurement": "ED", "setting": "Rattus norvegicus [2]", "result": 50, "unit": "mg/kg"}]}
{"smiles": "CN1CCN(CCCN2C(=O)/C(=C/c3ccccc3)Oc3ccccc32)CC1.Cl", "values": [{"measurement": "ED", "setting": "Rattus norvegicus [1]", "result": 50, "unit": "mg/kg"}, {"measurement": "IC50", "setting": "[7]", "result": 35, "unit": "µM"}, {"measurement": "IC50", "setting": "[8]", "result": 450, "unit": "µM"}, {"measurement": "ED", "setting": "Rattus norvegicus [2]", "result": 12.5, "unit": "mg/kg"}]}
{"smiles": "CN1CCN(CCCN2C(=O)/C(=C/c3ccccc3)Oc3ccc(Cl)cc32)CC1", "values": [{"measurement": "ED", "setting": "Rattus norvegicus [1]", "result": ">200", "unit": "mg/kg"}, {"measurement": "IC50", "setting": "[7]", "result": "> 500", "unit": "µM"}, {"measurement": "IC50", "setting": "[8]", "result": "> 500", "unit": "µM"}, {"measurement": "ED", "setting": "Rattus norvegicus [2]", "result": ">200", "unit": "mg/kg"}]}
{"smiles": "CN(C)CCN1C(=O)C(Cc2ccccc2)Oc2ccccc21.Cl", "note": "(stereo not given)", "values": [{"measurement": "ED", "setting": "Rattus norvegicus [1]", "result": ">200", "unit": "mg/kg"}, {"measurement": "ED", "setting": "Rattus norvegicus [2]", "result": 200, "unit": "mg/kg"}]}
{"smiles": "COc1ccc2c(c1)N(CCCN(C)C)C(=O)/C(=C/c1ccccc1)O2.Cl", "values": [{"measurement": "ED", "setting": "Rattus norvegicus [1]", "result": ">200", "unit": "mg/kg"}, {"measurement": "IC50", "setting": "[7]", "result": 60, "unit": "µM"}, {"measurement": "IC50", "setting": "[8]", "result": "> 100", "unit": "µM"}, {"measurement": "ED", "setting": "Rattus norvegicus [2]", "result": ">200", "unit": "mg/kg"}]}
{"smiles": "Cl.O=C1/C(=C/c2ccccc2)Oc2ccccc2N1CCCN1CCN(CO)CC1", "values": [{"measurement": "ED", "setting": "Rattus norvegicus [1]", "result": 100, "unit": "mg/kg"}, {"measurement": "IC50", "setting": "[7]", "result": 54, "unit": "µM"}, {"measurement": "IC50", "setting": "[8]", "result": "> 400", "unit": "µM"}, {"measurement": "ED", "setting": "Rattus norvegicus [2]", "result": 100, "unit": "mg/kg"}]}
{"smiles": "CN(C)CCCN1C(=O)/C(=C/c2ccccc2Cl)Oc2ccccc21.Cl", "values": [{"measurement": "ED", "setting": "Rattus norvegicus [1]", "result": ">200", "unit": "mg/kg"}, {"measurement": "IC50", "setting": "[7]", "result": 30, "unit": "µM"}, {"measurement": "IC50", "setting": "[8]", "result": 170, "unit": "µM"}, {"measurement": "ED", "setting": "Rattus norvegicus [2]", "result": 100, "unit": "mg/kg"}]}
{"smiles": "Cc1ccc2c(c1)N(CCCN(C)C)C(=O)/C(=C/c1ccccc1)O2.O=C(O)CCC(=O)O", "values": [{"measurement": "ED", "setting": "Rattus norvegicus [1]", "result": 100, "unit": "mg/kg"}, {"measurement": "IC50", "setting": "[7]", "result": 15, "unit": "µM"}, {"measurement": "IC50", "setting": "[8]", "result": 450, "unit": "µM"}, {"measurement": "ED", "setting": "Rattus norvegicus [2]", "result": 100, "unit": "mg/kg"}]}
{"smiles": "CN(C)CCCN1C(=O)/C(=C/c2ccccc2)Oc2ccccc21.Cl", "values": [{"measurement": "ED", "setting": "Rattus norvegicus [1]", "result": 25, "unit": "mg/kg"}, {"measurement": "IC50", "setting": "[7]", "result": 33, "unit": "µM"}, {"measurement": "IC50", "setting": "[8]", "result": 600, "unit": "µM"}, {"measurement": "ED", "setting": "Rattus norvegicus [2]", "result": 25, "unit": "mg/kg"}]}
{"smiles": "OCCN1CCN(CCCN2c3ccccc3Sc3ccc(C(F)(F)F)cc32)CC1", "note": "[FLUPHENAZINE]", "values": [{"measurement": "IC50", "setting": "[7]", "result": 0.5, "unit": "µM"}, {"measurement": "I50", "setting": "Rattus norvegicus [5]", "result": "inactive"}, {"measurement": "inhibition", "setting": "Rattus norvegicus [9]", "result": "< 10", "unit": "%"}]}
